For 26 molecules, IC50 and melting point results are on record in patent US6855843B2, “Inhibitors of α4 mediated cell adhesion” (Tanabe Seiyaku Co., Ltd., priority 1998, dated 2005).

Data set [1] concerns the target T1, α4β7 (adhesion of RPMI cells to CS-1) (Homo sapiens, UniProt P13612+P26010).
T1 construct: endogenous in cells
T1 sequence (P13612 34-1032): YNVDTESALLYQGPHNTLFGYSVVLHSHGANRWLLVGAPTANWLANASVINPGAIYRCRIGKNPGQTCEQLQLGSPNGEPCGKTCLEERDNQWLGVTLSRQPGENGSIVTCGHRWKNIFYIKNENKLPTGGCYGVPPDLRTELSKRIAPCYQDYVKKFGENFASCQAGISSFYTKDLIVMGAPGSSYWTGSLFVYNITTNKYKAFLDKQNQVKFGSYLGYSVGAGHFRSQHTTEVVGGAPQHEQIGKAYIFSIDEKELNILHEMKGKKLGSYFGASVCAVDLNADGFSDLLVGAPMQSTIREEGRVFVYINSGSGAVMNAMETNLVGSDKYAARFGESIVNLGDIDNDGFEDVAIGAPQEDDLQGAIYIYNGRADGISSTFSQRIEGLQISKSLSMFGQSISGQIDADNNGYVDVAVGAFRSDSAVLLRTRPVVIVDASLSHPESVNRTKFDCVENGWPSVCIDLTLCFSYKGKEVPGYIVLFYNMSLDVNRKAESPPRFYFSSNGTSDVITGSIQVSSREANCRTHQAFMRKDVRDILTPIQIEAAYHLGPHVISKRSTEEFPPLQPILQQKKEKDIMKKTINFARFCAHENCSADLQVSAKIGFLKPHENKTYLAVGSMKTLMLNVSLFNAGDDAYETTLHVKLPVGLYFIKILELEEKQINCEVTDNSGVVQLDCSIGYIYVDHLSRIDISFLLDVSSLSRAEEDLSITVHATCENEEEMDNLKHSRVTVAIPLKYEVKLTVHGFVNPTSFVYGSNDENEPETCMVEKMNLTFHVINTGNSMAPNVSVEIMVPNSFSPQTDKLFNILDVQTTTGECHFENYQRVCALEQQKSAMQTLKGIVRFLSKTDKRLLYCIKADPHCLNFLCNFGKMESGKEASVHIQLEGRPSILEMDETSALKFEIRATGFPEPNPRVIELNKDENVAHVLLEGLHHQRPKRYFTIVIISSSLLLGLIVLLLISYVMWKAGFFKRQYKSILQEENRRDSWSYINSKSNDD
T1 sequence (P26010 20-798): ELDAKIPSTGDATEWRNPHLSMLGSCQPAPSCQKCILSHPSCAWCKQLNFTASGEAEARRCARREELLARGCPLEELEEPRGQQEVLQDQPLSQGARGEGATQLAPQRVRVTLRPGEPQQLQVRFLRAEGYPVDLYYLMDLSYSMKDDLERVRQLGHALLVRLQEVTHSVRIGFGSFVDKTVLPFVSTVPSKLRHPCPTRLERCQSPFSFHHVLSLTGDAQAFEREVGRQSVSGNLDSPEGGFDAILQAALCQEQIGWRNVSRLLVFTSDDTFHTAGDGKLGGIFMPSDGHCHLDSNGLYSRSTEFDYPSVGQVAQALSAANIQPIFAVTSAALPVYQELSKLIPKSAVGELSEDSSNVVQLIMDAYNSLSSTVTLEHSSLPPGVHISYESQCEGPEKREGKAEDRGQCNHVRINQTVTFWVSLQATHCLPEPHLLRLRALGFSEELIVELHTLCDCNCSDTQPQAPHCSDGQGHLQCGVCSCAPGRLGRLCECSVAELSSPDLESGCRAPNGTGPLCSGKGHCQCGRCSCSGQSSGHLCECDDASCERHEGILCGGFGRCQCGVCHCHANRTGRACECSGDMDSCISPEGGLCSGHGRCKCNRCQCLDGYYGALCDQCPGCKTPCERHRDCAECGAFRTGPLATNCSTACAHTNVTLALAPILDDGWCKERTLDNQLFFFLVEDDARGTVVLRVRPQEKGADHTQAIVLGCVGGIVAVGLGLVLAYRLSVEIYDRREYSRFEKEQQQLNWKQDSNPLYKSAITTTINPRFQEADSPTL
The data set is described as follows: RPMI-CS-1 cell adhesion assay. Format: cell-based. The following applies: adhesion of RPMI B-cell line (expresses α4β7) to CS-1 peptide coated microwells; read-out: RPMI-CS-1 IC50 value range.

Where a name gives a salt, the structure may show the parent alone.

A word on the IC50: it is the point on the concentration scale where inhibition reaches its midpoint. One may read the melting point as the temperature of the solid-liquid transition. For the molecule `COc1ccc(CN2CCOCC2)c(OC)c1-c1ccc(C[C@H](NC(=O)c2c(Cl)cccc2Cl)C(=O)O)cc1` [Example 319, N-(2,6-Dichlorobenzoyl)-4-[2,6-dimethoxy-3-(morpholinomethyl)phenyl]-L-phenylalanine], the melting point fell in the range of 241 to 242 °C. Besides, in data set [1], the IC50 was less than 300 nM.

For the molecule `COc1cc(C(F)(F)F)cc(OC)c1-c1ccc(C[C@H](NC(=O)c2c(Cl)cccc2Cl)C(=O)O)cc1` [Example 321, N-(2,6-Dichlorobenzoyl)-4-[2,6-dimethoxy-4-(trifluoromethyl)phenyl]-L-phenylalanine], the melting point lay in the range of 231 to 232 °C. Further, the IC50 in data set [1] was less than 300 nM.

Turning to `COc1cccc(OC)c1-c1ccc(C[C@H](NC(=O)c2c(Cl)cccc2Cl)C(=O)O)s1` [Example 294, N-(2,6-Dichlorobenzoyl)-3-[5-(2,6-dimethoxyphenyl)-2-thienyl]-L-alanine], the melting point was 134 °C (dec.). Also, the IC50 in data set [1] lay within 1000 to 5000 nM.

Molecule `COc1ccccc1-c1ccc(C[C@@H](NC(=O)c2c(Cl)cccc2Cl)C(=O)O)cc1` [Example 5, N-(2,6-Dichlorobenzoyl)-4-(2-methoxyphenyl)-D-phenylalanine] registered a melting point of 195 °C. Moreover, the IC50 in data set [1] was in the range of 1000 to 5000 nM.

As to `CC(C)(C)OC(=O)n1cccc1-c1ccc(C[C@H](NC(=O)c2c(Cl)cccc2Cl)C(=O)O)cc1` [Example 329, N-(2,6-Dichlorobenzoyl)-4-(1-tert-butoxycarbonyl-2-pyrrolyl)-L-phenylalanine], the melting point lay within 98 to 99 °C. Besides, the IC50 in data set [1] fell in the range of 1000 to 5000 nM.

As to `COc1cc(N)cc(OC)c1-c1ccc(C[C@H](NC(=O)c2c(Cl)cccc2Cl)C(=O)O)cc1` [Example 157, N-(2,6-Dichlorobenzoyl)-4-(4-amino-2,6-dimethoxyphenyl)-L-phenylalanine], the melting point was 221 to 222 °C. The IC50 in data set [1] is less than 300 nM.

For `CNCc1cc(OC)c(-c2ccc(C[C@H](NC(=O)c3c(Cl)cccc3Cl)C(=O)O)cc2)c(OC)c1` [Example 242, N-(2,6-Dichlorobenzoyl)-4-[2,6-dimethoxy-4-[(methylamino)methyl]phenyl]-L-phenylalanine], the melting point worked out at 274 °C. For the same molecule, the IC50 in data set [1] is less than 300 nM.

Molecule `CCCCC(=O)c1cc(C[C@H](NC(=O)c2c(Cl)cccc2Cl)C(=O)O)ccc1-c1ccccc1OC` [Example 338] returned a melting point of 117.6 °C. Besides, the IC50 in data set [1] was less than 300 nM.

The molecule `CC(=O)c1cc(C[C@H](NC(=O)c2c(Cl)cccc2Cl)C(=O)O)ccc1-c1ccccc1` [Example 72, 3-Acetyl-N-(2,6-dichlorobenzoyl)-4-phenyl-L-phenylalanine] had a melting point of 109 to 111 °C. In addition, the half-inhibitory concentration (IC50) in data set [1] was 300 to 1000 nM.

For the molecule `CN(C)CCOc1cccc(O)c1-c1ccc(C[C@H](NC(=O)c2c(Cl)cccc2Cl)C(=O)O)cc1` [Example 232], the melting point was 168 to 169 °C. Also, the IC50 in data set [1] was less than 300 nM.

`COc1cc(C(=O)NC(C)C)cc(OC)c1-c1ccc(C[C@H](NC(=O)c2c(Cl)cccc2Cl)C(=O)O)cc1` [Example 168]: the melting point fell in the range of 261 to 262 °C. Also, in data set [1], the IC50 was less than 300 nM.

`CCCCCCC(=O)c1cc(C[C@H](NC(=O)c2c(Cl)cccc2Cl)C(=O)O)ccc1-c1ccccc1OC` [Example 339]: the melting point was in the range of 86 to 88 °C. Moreover, the IC50 in data set [1] is less than 300 nM.

`COc1ccccc1-c1ccc(C[C@H](NC(=O)c2ccc(Br)cc2Cl)C(=O)O)cc1` [Example 212] showed a melting point of 62 to 63 °C. Also, the IC50 in data set [1] was in the range of 1000 to 5000 nM.

Turning to `COc1cccc(OC)c1-c1ccc(C[C@H](NC(=O)c2c(Cl)cc(Br)cc2Cl)C(=O)O)cc1` [Example 207], the melting point was 184 to 185 °C. Besides, the IC50 in data set [1] was less than 300 nM.

In the case of `COc1cccc(OC)c1-c1ccc(C[C@H](NC(=O)c2c(Cl)cc(N)cc2Cl)C(=O)O)cc1` [Example 206, N-(4-Amino-2,6-dichlorobenzoyl)-4-(2,6-dimethoxyphenyl)-L-phenylalanine], the melting point is 221 to 222 °C (dec.). Further, the IC50 in data set [1] is less than 300 nM.

Molecule `COc1ccccc1-c1ccc(C[C@H](NC(=O)C(C)c2c(Cl)cccc2Cl)C(=O)O)cc1` (stereo partly drawn) [Example 213, N-[2-(2,6-Dichlorophenyl)propionyl]-4-(2-methoxyphenyl)-L-phenylalanine] displayed a melting point of 109 to 110 °C. For the same molecule, the IC50 in data set [1] fell in the range of 1000 to 5000 nM.

For `COc1cccc(OC)c1-c1ccc(C[C@H](NC(=O)c2c(Cl)cc(NS(=O)(=O)c3cccs3)cc2Cl)C(=O)O)cc1` [Example 193, N-[2,6-Dichloro-4-[(2-thienylsulfonyl)amino]benzoyl]-4-(2,6-dimethoxyphenyl)-L-phenylalanine], the melting point is 141 to 142 °C. Further, the IC50 in data set [1] was less than 300 nM.

As to `COc1cccc(OC)c1-c1ccc(C[C@H](NC(=O)c2c(Cl)ccc(Br)c2Cl)C(=O)O)cc1` [Example 331, N-(2,6-Dichloro-3-bromobenzoyl)-4-(2,6-dimethoxyphenyl)-L-phenylalanine], the melting point amounted to 234.8 °C. Further, the IC50 in data set [1] is less than 300 nM.

`COc1cccc(OC)c1-c1ccc(C[C@H](NC(=O)c2c(Cl)ccc(-c3c(C)noc3C)c2Cl)C(=O)O)cc1` [Example 305, N-[3-(3,5-Dimethyl-4-isoxazolyl)-2,6-dichlorobenzoyl]-4-(2,6-dimethoxyphenyl)-L-phenylalanine]: the melting point was found to be 144.8 °C. Moreover, in data set [1], the half-maximal inhibitory concentration (IC50) lay within 300 to 1000 nM.

`CCC(=O)c1cc(C[C@H](NC(=O)c2c(Cl)cccc2Cl)C(=O)O)ccc1-c1ccccc1OC` [Example 337]: the melting point was 118 to 119 °C. For the same molecule, in data set [1], the IC50 was less than 300 nM.

`COc1ccccc1-c1ccc(C[C@H](NC(=O)c2ccc(N(C)S(C)(=O)=O)cc2Cl)C(=O)O)cc1` had a melting point of 79.3 °C.

The molecule `CNC(=O)Nc1ccc(OC)c(-c2ccc(C[C@H](NC(=O)c3c(Cl)cccc3Cl)C(=O)O)cc2)c1OC` [Example 324, N-(2,6-Dichlorobenzoyl)-4-[2,6-dimethoxy-3-(methylureido)phenyl]-L-phenylalanine] registered a melting point of 236 to 237 °C. The IC50 in data set [1] is less than 300 nM.

On to `Cc1noc(C)c1-c1ccc(C[C@H](NC(=O)c2c(Cl)cccc2Cl)C(=O)O)cc1` [Example 330, N-(2,6-Dichlorobenzoyl)-4-(3,5-dimethyl-4-isoxazolyl)-L-phenylalanine], for which the melting point is 119 °C.

As to `CCOC(=O)[C@H](Cc1ccc(-c2c(OC)cc(CN(C)C)cc2OC)cc1)NC(=O)c1c(Cl)cccc1Cl` (as salt: hydrochloride) [Example 259, N-(2,6-Dichlorobenzoyl)-4-[2,6-dimethoxy-4-[(N,N-dimethylamino)methyl]phenyl]-L-phenylalanine ethyl ester hydrochloride], the melting point is 146.5 °C.

`COc1cc(CN2CCSCC2)cc(OC)c1-c1ccc(C[C@H](NC(=O)c2c(Cl)cccc2Cl)C(=O)O)cc1` [Example 253, N-(2,6-dichlorobenzoyl)-4-[2,6-dimethoxy-4-(thiomorpholinomethyl)phenyl]-L-phenylalanine] yielded a melting point of 86 to 89 °C.

`COc1cccc(O)c1-c1ccc(C[C@H](NC(=O)c2c(Cl)cccc2Cl)C(=O)O)cc1` [Example 359, N-(2,6-Dichlorobenzoyl)-4-(6-methoxy-2-hydroxyphenyl)-L-phenylalanine] returned a melting point of 224.4 °C.
